According to patent US20240245658A1, “TAAR1 AND SEROTONIN MODULATORS, AND PHARMACEUTICAL COMPOSITIONS, AND METHODS OF USE THEREOF” (Sunovion Pharmaceuticals Inc., priority 2021, published 2024):

Target: T1, human TAAR1 receptors (Homo sapiens, UniProt Q96RJ0)
T1 construct: host or cells: CHO-K1
T1 sequence (Q96RJ0 1-339): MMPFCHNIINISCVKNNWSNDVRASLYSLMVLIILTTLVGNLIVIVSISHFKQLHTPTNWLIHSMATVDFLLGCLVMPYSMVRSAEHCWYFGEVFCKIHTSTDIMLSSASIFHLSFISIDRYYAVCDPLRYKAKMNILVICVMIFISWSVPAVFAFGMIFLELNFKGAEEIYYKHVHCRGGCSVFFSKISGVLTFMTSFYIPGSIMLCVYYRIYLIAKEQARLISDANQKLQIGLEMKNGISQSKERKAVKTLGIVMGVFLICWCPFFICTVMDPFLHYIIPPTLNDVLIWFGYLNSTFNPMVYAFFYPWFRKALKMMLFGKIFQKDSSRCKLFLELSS
Assay: TAAR1 Agonism Assay: cAMP HTRF assay for Gs coupled receptor TAAR1 (Euroscreen FAST-0987C)
Type: cell-based
Settings: CHO-K1 cells expressing human TAAR1, cAMP HTRF
Procedure: Dose response curves were performed in parallel with the reference compound, tyramine.
For the TAAR1 agonist test (performed in a 384 well plate): 5 μl of cells (about 3,000 cells) were mixed with 5 μl of the test compound diluted in assay buffer and then incubated for about 30 minutes at about room temperature. After addition of the lysis buffer containing cAMP-d2 and anti-cAMP cryptate detection reagents, plates were incubated for about a 1-hour incubation at about room temperature, and fluorescence ratios were measured according to the manufacturer specifications, with the HTRF (Homogeneous Time Resolved Fluorescence) kit (cAMP Gs dynamic kit, Cisbio Bioassays, 62AM4PEJ).
Compounds were tested at the following nanomolar concentrations, in duplicate: 0.3 nM, 1 nM, 3 nM, 10 nM, 30 nM, 100 nM, 300 nM, 1,000 nM, 3,000 nM, and 10,000 nM.

Structure (SMILES)	EC50 [µM]
CNCC1Cc2ncccc2Oc2cc(F)ccc21 (single isomer, unassigned) [Compound 33, (R*)-1-(7-fluoro-10,11-dihydrobenzo[6,7]oxepino[3,2-b]pyridin-10-yl)-N-methylmethanamine]	> 10
CNCC1Cc2ncccc2Oc2cc(F)ccc21 (single isomer, unassigned) [Compound 34, (S*)-1-(7-fluoro-10,11-dihydrobenzo[6,7]oxepino[3,2-b]pyridin-10-yl)-N-methylmethanamine]	< 1
NCC1Cc2ncccc2Oc2cc(F)ccc21 (single isomer, unassigned) [Compound 35, (R*)-(7-fluoro-10,11-dihydrobenzo[6,7]oxepino[3,2-b]pyridin-10-yl)methanamine]	1 to 10
CNCC1Cc2ncc(F)cc2Oc2ccccc21 (single isomer, unassigned) [Compound 37, (R*)-1-(3-fluoro-10,11-dihydrobenzo[6,7]oxepino[3,2-b]pyridin-10-yl)-N-methylmethanamine]	> 10
NCC1Cc2ccc(F)cc2Oc2ccccc21 (single isomer, unassigned) [Compound 88, (R*)-(3-fluoro-10,11-dihydrodibenzo[b,f]oxepin-10-yl)methanamine]	1 to 10
NCC1Cc2ccccc2Oc2ccc(F)cc21 (single isomer, unassigned) [Compound 93, (S*)-(8-fluoro-10,11-dihydrodibenzo[b,f]oxepin-10-yl)methanamine]	1 to 10
NCC1Cc2cc(F)ccc2Oc2ccccc21 (single isomer, unassigned) [Compound 97, (S*)-(2-fluoro-10,11-dihydrodibenzo[b,f]oxepin-10-yl)methanamine]	> 10
CNCC1Cc2cc(F)ccc2Oc2ccccc21 (single isomer, unassigned) [Compound 99, (S*)-(2-fluoro-10,11-dihydrodibenzo[b,f]oxepin-10-yl)-N-methylmethanamine]	> 10
CNCC1Cc2ccccc2Oc2c(F)cccc21 (single isomer, unassigned) [Compound 103, (S*)-(6-fluoro-10,11-dihydrodibenzo[b,f]oxepin-10-yl)-N-methylmethanamine]	1 to 10
CCNCC1Cc2ccccc2Oc2cccnc21 (single isomer, unassigned) [Compound 108, (S*)-1-(10,11-dihydrobenzo[6,7]oxepino[3,2-b]pyridin-11-yl)-N-ethylmethanamine]	< 1
CN(C)CC1Cc2ccccc2Oc2cccnc21 (single isomer, unassigned) [Compound 110, (S*)-1-(10,11-dihydrobenzo[6,7]oxepino[3,2-b]pyridin-11-yl)-N,N-dimethylmethanamine]	> 10
CNCC1Cc2c(F)cccc2Oc2cccnc21 (single isomer, unassigned) [Compound 139, (R*)-1-(9-fluoro-10,11-dihydrobenzo[6,7]oxepino[3,2-b]pyridin-11-yl)-N-methylmethanamine]	1 to 10
CNCC1Cc2c(C)cccc2Oc2cccnc21 (single isomer, unassigned) [Compound 142, (S*)-(9-methyl-10,11-dihydrobenzo[6,7]oxepino[3,2-b]pyridin-11-yl)-N-methylmethanamine]	1 to 10
CNCC1Cc2c(Cl)cccc2Oc2cccnc21 (single isomer, unassigned) [Compound 146, (S*)-(9-chloro-10,11-dihydrobenzo[6,7]oxepino[3,2-b]pyridin-11-yl)-N-methylmethanamine]	> 10
NCC1Cc2cc(Br)ccc2Oc2cccnc21 (single isomer, unassigned) [Compound 148, (R*)-(8-bromo-10,11-dihydrobenzo[6,7]oxepino[3,2-b]pyridin-11-yl)methanamine]	< 1
NCC1Cc2ncccc2Oc2cccc(F)c21 (single isomer, unassigned) [Compound 155, (R*)-(9-fluoro-10,11-dihydrobenzo[6,7]oxepino[3,2-b]pyridin-10-yl)methanamine]	1 to 10
CNCC1Cc2ncccc2Oc2cccc(F)c21 (single isomer, unassigned) [Compound 157, (R*)-(9-fluoro-10,11-dihydrobenzo[6,7]oxepino[3,2-b]pyridin-10-yl)-N-methylmethanamine]	> 10
NCC1Cc2ncccc2Oc2ccc(Cl)cc21 (single isomer, unassigned) [Compound 168, (S*)-(8-chloro-10,11-dihydrobenzo[6,7]oxepino[3,2-b]pyridin-10-yl)methanamine]	1 to 10
CNCC1Cc2ncccc2Oc2ccc(Cl)cc21 (single isomer, unassigned) [Compound 169, (R*)-1-(8-chloro-10,11-dihydrobenzo[6,7]oxepino[3,2-b]pyridin-10-yl)-N-methylmethanamine]	> 10
NCC1Cc2ncccc2Oc2c(F)cccc21 (single isomer, unassigned) [Compound 175, (R*)-(6-fluoro-10,11-dihydrobenzo[6,7]oxepino[3,2-b]pyridin-10-yl)methanamine]	1 to 10
CNCC1Cc2ncccc2Oc2c(F)cccc21 (single isomer, unassigned) [Compound 177, (R*)-1-(6-fluoro-10,11-dihydrobenzo[6,7]oxepino[3,2-b]pyridin-10-yl)-N-methylmethanamine]	> 10
CNCC1Cc2ncccc2Oc2c(F)cccc21 (single isomer, unassigned) [Compound 178, (S*)-1-(6-fluoro-10,11-dihydrobenzo[6,7]oxepino[3,2-b]pyridin-10-yl)-N-methylmethanamine]	< 1
C[C@H]1c2ccccc2Oc2cccnc2[C@H]1CN (stereo in doubt) [Compound 113, ((10R*,11R*)-10-methyl-10,11-dihydrobenzo[6,7]oxepino[3,2-b]pyridin-11-yl)methanamine]	> 10
CNC[C@@H]1c2ncccc2Oc2ccccc2[C@@H]1C (stereo in doubt) [Compound 117, ((10R*,11R*)-10-methyl-10,11-dihydrobenzo[6,7]oxepino[3,2-b]pyridin-11-yl)-N-methylmethanamine]	> 10
